{"source": "patent US12377175B2", "about": "“Trifunctional constructs with tunable pharmacokinetics useful in imaging and anti-tumor therapies” (Cornell University, priority 2016, dated 2025)", "test_system": "LNCaP xenograft tumor-bearing mice", "test": "Biodistribution of 225Ac-macropa-RPS-070 in LNCaP xenograft mice", "format": "in vivo, mouse", "conditions": "4-96 h; no accumulation of 225Ac in liver, spleen, bone", "protocol": "Cell Culture. […] Cell culture supplies were from Invitrogen unless otherwise noted.\nInoculation of Mice with Xenografts. All animal studies were approved by the Institutional Animal Care and Use Committee of Weill Cornell Medicine and were undertaken in accordance with the guidelines set forth by the USPHS Policy on Humane Care and Use of Laboratory Animals. Animals were housed under standard conditions in approved facilities with 12 h light/dark cycles. Food and water was provided ad libitum throughout the course of the studies. Hairless male nu/nu mice were purchased from the Jackson Laboratory. For inoculation in mice, LNCaP cells were suspended at 4×10^7 cells/mL in a 1:1 mixture of PBS:Matrigel (BD Biosciences). Each mouse was injected in the left flank with 0.25 mL of the cell suspension. Biodistributions were conducted when tumors were in the range 100-400 mm^3.\nBiodistribution of […] in LNCaP xenograft mice. Fifteen LNCaP xenograft tumor-bearing mice (5 per time point) were injected intravenously with a bolus injection of 85-95 kBq and 100 ng ([…]) of each ligand. The mice were sacrificed by cervical dislocation at 4, 24 and 96 h post injection. A blood sample was removed, and a full biodistribution study was conducted on the following organs (with contents): heart, lungs, liver, small intestine, large intestine, stomach, spleen, pancreas, kidneys, muscle, bone, and tumor. Tissues were weighed and counted on a 2470 Wizard Automatic Gamma Counter (Perkin Elmer). 1% ID/mL samples were counted prior to and following each set of tissue samples to enable decay correction to be undertaken. Counts were corrected for decay and for activity injected, and tissue uptake was expressed as percent injected dose per gram (% ID/g). Standard error measurement was calculated for each data point.", "data": [{"smiles": "O=C(O)CC[C@H](NC(=O)N[C@@H](CCCCNC(=O)Nc1cccc(-c2cn(CCOCCOCCOCCOCCOCCOCCC(=O)N[C@@H](CCCCNC(=S)Nc3cc(CN4CCOCCOCCN(Cc5cccc(C(=O)O)n5)CCOCCOCC4)nc(C(=O)O)c3)C(=O)N[C@@H](CCCCNC(=O)Cc3ccc(I)cc3)C(=O)O)nn2)c1)C(=O)O)C(=O)O", "note": "[macropa-RPS-070, (((S)-1-Carboxy-5-(3-(3-(1-((23S,26S)-26-carboxy-23-(4-(3-(2-carboxy-6-((16-((6-carboxypyridin-2-yl)methyl)-1,4,10,13-tetraoxa-7,16-diazacyclooctadecan-7-yl)methyl)pyridin-4-yl)thioureido)butyl)-33-(4-iodophenyl)-21,24,32-trioxo-3,6,9,12,15,18-hexaoxa-22,25,31-triazatritriacontyl)-1H-1,2,3-triazol-4-yl)phenyl)ureido)pentyl)carbamoyl)-L-glutamic acid]", "values": [{"measurement": "retention of 225Ac by the construct in vivo", "value": "stably retain"}]}]}
